From paper PMC9569450, “Dual Effect of Tryptamine on Prostate Cancer Cell Growth Regulation: A Pilot Study” (International Journal of Molecular Sciences, 2022)

Legend:
[1] = system: human colon cancer cell line HT29; settings: HT29 as in vitro model of intestinal epithelium; cited from earlier work
A549 cells [2] = experiment: MTT cell proliferation assay, A549; assay type: cell-based; settings: Homo sapiens, A549, 48 h treatment in FBS-free medium, read-out: IC50 Value (Mean ± SD mM) A549
Procedure: (§1) PC-3, LNCaP, RWPE-1, HepG2, A549, and PANC-1 cells were purchased from the National Collection of Authenticated Cell Cultures (Shanghai, China). […] All the above cell cultures were supplied with 10% fetal bovine serum and 1% penicillin-streptomycin. RWPE-1 cells were cultured in keratinocyte serum-free medium (K-SFM, Gibco, New York, NY, USA) supplemented with 50 mg/L bovine pituitary extract and 5 μg/L epidermal growth factor (EGF). All cell lines were grown in a humidified atmosphere of 5% CO2 at 37 °C.
(§2) Cells were seeded in 100 μL complete medium in a 96-well plate, at a density of 10,000 cells/well for LNCaP and 5000 cells/well for other cells. Cells were pre-incubated for 24 h to allow for adherence before removal of complete medium and treatment with various concentrations of compounds in fetal bovine serum (FBS)-free medium for 48 h. After treatment, 20 μL/well MTT (5 mg/mL) was added and incubated for 3–4 h at 37 °C, and then 100 μL/well DMSO was added for MTT assay. The plate was shaken on an orbital shaker for 10 min. Absorbance was measured using a microplate reader at 492 nm for the MTT assay (performed in triplicates). Cell viability was normalized to control. Half inhibitory concentration (IC50) was calculated by SPSS Statistics 17.0. […] The experiments were independently repeated two to three times.

PC-3 cells = experiment: MTT cell proliferation assay, PC-3; assay type: cell-based, human; settings: Homo sapiens, PC-3, 48 h treatment in FBS-free medium, read-out: IC50 Value (Mean ± SD mM) PC-3
Procedure: as §1, §2

A549 cells [3] = experiment: Transwell migration assay, A549; assay type: cell-based; settings: 24 h
Procedure: Cell migration was evaluated using 8-μm transwell filters (Costar Corning, Schiphol-Rijk, The Netherlands). Cells at a density of 5 × 10^4 were seeded to the upper chamber, and the chamber was filled with FBS-free medium. Cells were incubated overnight to allow for adherence; then, the lower chamber was replaced with 10% FBS medium as a chemo-attractant. Following a 24 h incubation, non-migrating cells on the upper surface of the insert membrane were gently removed by cotton swabs and migrated cells on the lower surface of the insert membrane were fixed by 4% paraformaldehyde and stained with 0.1% crystal violet for 20 min. Migrated cells on each membrane were photographed and counted at 100× magnification field at six random fields.

HepG2 cells = experiment: MTT cell proliferation assay, HepG2; assay type: cell-based; settings: Homo sapiens, HepG2, 48 h treatment in FBS-free medium, read-out: IC50 Value (Mean ± SD mM) HepG2
Procedure: as §1, §2

PC-3 xenograft tumors = experiment: PC-3 xenograft mouse model; assay type: in vivo
Procedure: Five-week-old male BALB/c nude mice were purchased from Charles River Laboratories (Beijing, China) and raised in a temperature and humidity-controlled environment (25 ± 2 °C, 50% ± 10% humidity) with a standard 12 h light-dark cycle with food and water in cages under germ-free conditions (SCXK2021-0006). All procedures involving animals and their care were approved by the Institutional Animal Care and Use Committee of the Ocean University of China in accordance with institutional and National Institutes of Health guidelines (OUC-SMP-2022-01-01). PC-3 cells (4 × 10^6 dissolved in 150 μL PBS) were injected subcutaneously into the armpit area of each mouse. For the first treatment group, when tumors reached 50 mm^3, 80 mg/kg of tryptamine dissolved in normal saline with 0.1% formic acid was administered intraperitoneally once every other day for 32 days (n = 6). […] The control groups were administrated with the vehicle. The tumor volume (mm^3) was calculated based on the formula:(2) Tumor volume (mm^3)=length×width^2/2

LNCaP cells = experiment: MTT cell proliferation assay, LNCaP; assay type: cell-based; settings: Homo sapiens, LNCaP, 48 h treatment in FBS-free medium, read-out: IC50 Value (Mean ± SD mM) LNCaP
Procedure: as §1, §2

RWPE-1 cells = experiment: MTT cell proliferation assay, RWPE-1; assay type: cell-based; settings: Homo sapiens, RWPE-1; MTT, 48 h treatment in FBS-free medium; read-out: IC50 Value (Mean ± SD mM) RWPE-1
Procedure: as §1, §2

[4] = system: cleaved caspase-3 in PC-3 cells; experiment: Cleaved caspase-3 expression by immunofluorescent staining and Western blot; assay type: cell-based, human; settings: PC-3, 0.3 mM
Procedure: After treatment with various doses of tryptamine, PC-3 cells were lysed with RIPA lysis buffer (Beyotime, Shanghai, China) containing 1 mM PMSF, and the total protein concentration was determined by BCA Protein Assay Kit (Solarbio, Beijing, China). Samples were electrophoresed on a 10% sodium dodecylsulfate (SDS) polyacrylamide gel and electrotransferred onto polyvinylidene difluoride (PVDF) membrane (Beyotime, China). After blocking with 5% BSA for 1 h, the membrane was incubated with the primary antibodies rabbit anti-cleaved caspase-3 (1:1000, ab32042, Abcam) and anti-β-actin (1:1000, 4967S, Cell Signaling Technology, Boston, MA, USA) at 4 °C overnight, followed by incubation with horseradish peroxidase (HRP)-conjugated goat anti-rabbit secondary antibody (1:2000, 7074S, Cell Signaling Technology) for 1 h at 37 °C. After washing with TBST, the bands were visualized by the enhanced chemiluminescence kit (Thermo Fisher Scientific, Carlsbad, CA, USA) and Odyssey® imaging system (LI-COR, Lincoln, NE, USA) according to the manufacturers’ instructions.
PC-3 cells (5 × 10^4 cells/well) were seeded in a 24-well chamber with a coverslip and incubated overnight. […] Fluorescence images were acquired with a laser scanning confocal microscope (LSCM, Leica, TCS SP8 MP, Heidelberg, Germany).

Compound: NCCc1c[nH]c2ccccc12 [Tryptamine]
- IC50 [1]: 670 ± 90 µM
- IC50 (A549 cells [2]): 0.46 ± 0.01 mM
- IC50 (PC-3 cells): 0.24 ± 0.01 mM
- migrated cells compared with the control (A549 cells [3]; A549, 0.075 mM): no significant difference
- percentage of migrated cells (A549 cells [3]; A549, 0.15 mM): 80%
- percentage of migrated cells (A549 cells [3]; A549, 0.3 mM): 63%
- IC50 (HepG2 cells): 0.35 ± 0.02 mM
- tumor volume and weight compared with the control group (PC-3 xenograft tumors; intraperitoneal, 80 mg/kg once every other day for 32 days): increased tumor volume and weight
- adverse effects or toxicity in the liver (PC-3 xenograft tumors; intratumoral, 1 mg/100 mm^3): without obvious signs of adverse effects or toxicity in the liver
- tumor growth, tumor volume and weight (PC-3 xenograft tumors; intratumoral, 1 mg/100 mm^3 every day for 16 days): significant tumor growth delay
- IC50 (LNCaP cells): 0.037 ± 0.001 mM
- IC50 (RWPE-1 cells): 0.71 ± 0.06 mM
- expression of cleaved caspase-3 [4]: increased expression of cleaved caspase-3
